Counter-ions that a name gives are not always drawn. Non-standard residues stand in square brackets, D forms with d. Residues, ends and D or L forms follow the SMILES beside them. *: point of attachment. Arg(NO2) = N=C(NCCC[C@H](N)C(=O)O)N[N+](=O)[O-]; X1 = CCCCO*
Test system: obese mice (SLAC/DB/DB)
Test: Anti-obese activity, transdermal, obese female DB/DB mice (third experiment)
Type: in vivo, mouse
Conditions: for Weight (g) (Day 1) / Blood Glucose Levels (day 1) (mg/dL, no fasting): baseline; for effect on body weights and blood glucose levels of obese mice (in words): 15, 1.5 and 0.5 mg/kg transdermal twice per day for 30 days
Experimental: In a third experiment, 40 obese female DB/DB mice (SLAC/DB/DB mice, 16 weeks old, 55-60 g) were divided into 4 groups. In group A, 0.1 ml of water was administered to the back of mouse (n=10) twice per day for 30 days. In Groups B, C, and D, 15 mg/kg, 1.5 mg/kg, and 0.5 mg/kg of H-Val-Pro-Gly-Pro-Arg(NO2)-OCH(CH3)2.HCl(SEQ ID NO: 197) in 0.1 ml of water was administered transdermally to the back of mouse (n=10) twice per day for 30 days respectively.
In a third experiment, 40 obese female DB/DB mice (SLAC/DB/DB) mice (16 weeks old, 55-60 g) were divided into 4 groups. In group A, 0.1 ml of water was administered to the back of mouse (n=10) twice per day for 30 days. In Groups B, C, and D, 15 mg/kg, 1.5 mg/kg, and 0.5 mg/kg of H-Val-Pro-Gly-Pro-Arg(diAc)-OCH2CH2CH2CH3.HCl(SEQ ID NO: 198) in 0.1 ml of water was administered transdermally to the back of mouse (n=10) twice per day for 30 days respectively.
In a third experiment, 40 obese female DB/DB mice (SLAC/DB/DB) mice (16 weeks old, 53-61 g) were divided into 4 groups. In group A, 0.1 ml of water was administered to the back of mouse (n=10) twice per day for 30 days. In Groups B, C, and D, 15 mg/kg, 1.5 mg/kg, and 0.5 mg/kg of H-Ala-Pro-Gly-Pro-Arg(NO2)—OCH2CH2CH2CH3.HCl(SEQ ID NO: 199) in 0.1 ml of water was administered transdermally to the back of mouse (n=10) twice per day for 30 days respectively.
In a third experiment, 40 obese female DB/DB mice (SLAC/DB/DB) mice (16 weeks old, 53-61 g) were divided into 4 groups. In group A, 0.1 ml of water was administered to the back of mouse (n=10) twice per day for 30 days. In Groups B, C, and D, 15 mg/kg, 1.5 mg/kg, and 0.5 mg/kg of H-Val-Pro-Asp(OEt)-Pro-Arg(NO2)-OCH2CH2CH2CH3.HCl(SEQ ID NO: 200) in 0.1 ml of water was administered transdermally to the back of mouse (n=10) twice per day for 30 days respectively.

[1] = 0.5 mg/kg transdermal twice per day for 30 days
[2] = 0.5 mg/kg transdermal twice per day
[3] = 1.5 mg/kg transdermal twice per day for 30 days
[4] = 1.5 mg/kg transdermal twice per day
[5] = 15 mg/kg transdermal twice per day for 30 days
[6] = 15 mg/kg transdermal twice per day

Row | Molecule | Weight (g) (Day 30) [1] | Blood Glucose Levels (day 30) (mg/dL, no fasting) [1] [mg/dL] | Weight (g) (Day 1) [2] | Blood Glucose Levels (day 1) (mg/dL, no fasting) [2] [mg/dL] | Weight (g) (Day 30) [3] | Blood Glucose Levels (day 30) (mg/dL, no fasting) [3] [mg/dL] | Weight (g) (Day 1) [4] | Blood Glucose Levels (day 1) (mg/dL, no fasting) [4] [mg/dL] | Weight (g) (Day 30) [5] | Blood Glucose Levels (day 30) (mg/dL, no fasting) [5] [mg/dL] | Weight (g) (Day 1) [6] | Blood Glucose Levels (day 1) (mg/dL, no fasting) [6] [mg/dL] | effect on body weights and blood glucose levels of obese mice (in words)
1 | CCCCOC(=O)[C@H](CCCNC(=N)N[N+](=O)[O-])NC(=O)[C@@H]1CCCN1C(=O)[C@H](CC(=O)OCC)NC(=O)[C@@H]1CCCN1C(=O)[C@@H](N)C(C)C [H-Val-Pro-Asp(OEt)-Pro-Arg(NO2)—OCH2CH2CH2CH3.HCl] (H-VPD(OEt)P[Arg(NO2)]-X1) | 56.7 ± 2.8 | 171.8 ± 28.4 | 58.7 ± 3.3 | 199.6 ± 31.5 | 54.3 ± 2.9 | 152.4 ± 26.8 | 58.8 ± 3.1 | 203.4 ± 25.8 | 52.4 ± 3.4 | 145.4 ± 25.7 | 57.9 ± 3.8 | 203.4 ± 27.4 | reduced body weights and blood glucose levels of obese mice effectively
2 | CC(C)OC(=O)[C@H](CCCNC(=N)N[N+](=O)[O-])NC(=O)[C@@H]1CCCN1C(=O)CNC(=O)[C@@H]1CCCN1C(=O)[C@@H](N)C(C)C [H-Val-Pro-Gly-Pro-Arg(NO2)-OCH(CH3)2•HCl, H-Val-Pro-Gly-Pro-Arg(NO2)—OCH(CH3)2.HCl] (HELM PEPTIDE1{V.P.G.P.[N=C(NCCC[C@H](N[*:1])C(=O)[*:2])N[N+](=O)[O-]].[CC(C)O[*:1]]}$$$$V2.0) | 54.2 ± 2.9 | 153.4 ± 26.4 | 56.2 ± 2.7 | 199.7 ± 26.8 | 52.3 ± 1.9 | 142.4 ± 18.7 | 57.2 ± 2.1 | 201.4 ± 23.1 | 52.1 ± 2.2 | 137.4 ± 25.2 | 57.7 ± 1.6 | 206.4 ± 21.8 | reduced body weights and blood glucose levels of obese mice effectively
3 | H-Val-Pro-Gly-Pro-Arg(diAc)-OCH2CH2CH2CH3.HCl | 59.3 ± 3.2 | 179.4 ± 21.1 | 57.9 ± 2.7 | 196.9 ± 29.8 | 58.3 ± 2.9 | 166.4 ± 20.8 | 57.6 ± 3.8 | 195.4 ± 36.7 | 54.7 ± 3.8 | 152.4 ± 17.9 | 56.7 ± 2.7 | 201.5 ± 24.6 | reduced body weights and blood glucose levels of obese mice effectively
4 | CCCCOC(=O)[C@H](CCCNC(=N)N[N+](=O)[O-])NC(=O)[C@@H]1CCCN1C(=O)CNC(=O)[C@@H]1CCCN1C(=O)[C@H](C)N [H-Ala-Pro-Gly-Pro-Arg(NO2)—OCH2CH2CH2CH3.HCl] (HELM PEPTIDE1{A.P.G.P.[N=C(NCCC[C@H](N[*:1])C(=O)[*:2])N[N+](=O)[O-]].[CCCCO[*:1]]}$$$$V2.0) | 54.7 ± 2.7 | 159.4 ± 24.4 | 58.4 ± 2.9 | 197.6 ± 28.2 | 53.3 ± 3.2 | 148.4 ± 16.4 | 57.1 ± 2.8 | 199.4 ± 23.7 | 51.9 ± 2.7 | 139.5 ± 15.9 | 57.2 ± 2.2 | 202.4 ± 21.4 | reduced body weights and blood glucose levels of obese mice effectively
